Results from US5120842A, “Silyl ethers of rapamycin” (American Home Products Corporation, priority 1991, dated 1992).
Values after ≈ are worked out from the molar mass of the structure shown. Like-named read-outs stand apart in the source and are kept apart here.

Legend:
[1] = system: cells from the thymus of normal BALB/c mice (lymphocyte proliferation); assay: comitogen-induced thymocyte proliferation procedure (LAF); format: cell-based; conditions: Mus musculus
Description: Immunosuppressive activity was evaluated in an in vitro standard pharmacological test procedure to measure lymphocyte proliferation (LAF).
Briefly, cells from the thymus of normal BALB/c mice are cultured for 72 hours with PHA and IL-1 and pulsed with tritiated thymidine during the last six hours. Cells are cultured with and without various concentrations of rapamycin, cyclosporin A, or test compound. Cells are harvested and incorporated radioactivity is determined. Inhibition of lymphoproliferation is assessed as percent change in counts per minute from non-drug treated controls. The results are expressed as an IC50.

[2] = system: Candida albicans ATCC 38248; assay: antifungal plate test procedure; format: cell-based; conditions: ATCC38248, strain ATCC 38248, plate disk test, read-out: MIC to inhibit growth
Description: (§1) Antifungal activity of a representative compound of this invention was measured against 5 strains of Candida albicans using a plate test procedure for measurement of inhibition. The following represents the typical procedure used. Compound to be tested was placed on sterile dried 1/4" plate disks, and allowed to dry. Agar plates were seeded with fungi and allowed to solidify. The impregnated disks were placed on the seeded Agar surface and incubated for the time required for the particular culture.

[3] = system: Candida albicans ATCC 10231; assay: antifungal plate test procedure; format: cell-based; conditions: ATCC10231, strain ATCC 10231, plate disk test, read-out: MIC to inhibit growth
Description: as §1

[4] = system: Candida albicans ATCC 38247; assay: antifungal plate test procedure; format: cell-based; conditions: ATCC38247, strain ATCC 38247, plate disk test, read-out: MIC to inhibit growth
Description: as §1

[5] = system: Candida albicans ATCC 38246; assay: antifungal plate test procedure; format: cell-based; conditions: ATCC38246, strain ATCC 38246, plate disk test, read-out: MIC to inhibit growth
Description: as §1

Candida albicans 3669 = assay: antifungal plate test procedure; format: cell-based; conditions: strain 3669, plate disk test, read-out: MIC to inhibit growth
Description: as §1

[6] = cited from earlier work
[7] = model for rheumatoid arthritis; cited from earlier work
[8] = model for multiple sclerosis; cited from earlier work
Candida albicans = conditions: in vitro and in vivo; cited from earlier work
IgE-like antibodies = conditions: in vivo; cited from earlier work
[9] = read-out: IC50 (LAF), 72 h culture with PHA and IL-1, tritiated thymidine last six hours, table 1

SMILES | IC50 ([1]; rapamycin-31-acetate and rapamycin evaluated contemporaneously, read-out: IC50 (LAF)) [µM] | MIC [2] [mg/L] | MIC [3] [mg/L] | MIC [4] [mg/L] | MIC [5] [mg/L] | MIC (Candida albicans 3669) [mg/L] | IC50 [1, 9] [µM] | antitumor activity ([6]; in combination with picibanil) | antitumor activity ([6]; rapamycin alone) | effect in adjuvant arthritis model [7] | effect in experimental allergic encephalomyelitis model [8] | antifungal activity (Candida albicans) | inhibition of formation of IgE-like antibodies (IgE-like antibodies) | IC50 ([1]; read-out: IC50 (LAF), rapamycin-31-acetate and rapamycin evaluated contemporaneously) [µM]
CO[C@H]1C[C@@H]2CC[C@@H](C)[C@@](O)(O2)C(=O)C(=O)N2CCCC[C@H]2C(=O)O[C@H]([C@H](C)C[C@@H]2CC[C@@H](O)[C@H](OC)C2)CC(=O)[C@H](C)/C=C(\C)[C@@H](OC(C)=O)[C@@H](OC)C(=O)[C@H](C)C[C@H](C)/C=C/C=C/C=C/1C [rapamycin-31-acetate, Rapamycin 31-acetate] | 0.0565 |  |  |  |  |  |  |  |  |  |  |  |  | 
CO[C@H]1C[C@@H]2CC[C@@H](C)[C@@](O)(O2)C(=O)C(=O)N2CCCC[C@H]2C(=O)O[C@H]([C@H](C)C[C@@H]2CC[C@@H](O[Si](C)(C)C(C)(C)C)[C@H](OC)C2)CC(=O)[C@H](C)/C=C(\C)[C@@H](O)[C@@H](OC)C(=O)[C@H](C)C[C@H](C)/C=C/C=C/C=C/1C [Example 1, Rapamycin 42-O-[(1,1-Dimethylethyl)dimethylsilyl]ether] |  | > 0.4 | 0.2 (≈ 0.194 µM) | 0.2 (≈ 0.194 µM) | > 0.4 | > 0.4 | 0.0458 |  |  |  |  |  |  | 
CO[C@H]1C[C@@H]2CC[C@@H](C)[C@@](O)(O2)C(=O)C(=O)N2CCCC[C@H]2C(=O)O[C@H]([C@H](C)C[C@@H]2CC[C@@H](O)[C@H](OC)C2)CC(=O)[C@H](C)/C=C(\C)[C@@H](O)[C@@H](OC)C(=O)[C@H](C)C[C@H](C)/C=C/C=C/C=C/1C [Rapamycin] |  | 0.006 (≈ 0.00656 µM) | 0.003 (≈ 0.00328 µM) | 0.003 (≈ 0.00328 µM) | 0.025 (≈ 0.0273 µM) | 0.025 (≈ 0.0273 µM) | 0.0032 | shown to have antitumor activity | shown to have antitumor activity | effective | effective | antifungal activity, particularly against Candida albicans, both in vitro and in vivo | effectively inhibited the formation of IgE-like antibodies | 0.0078
